These results are taken from PMC12480666, “A robust platform streamlining aromatic noncanonical amino acid biosynthesis and genetic code expansion in Escherichia coli” (Nature Communications, 2025).

Structures are written as SMILES.

This test has as its target T1, TyrB (aromatic amino acid aminotransferase) (Escherichia coli, UniProt P04693).
T1 construct: recombinant, purified from E. coli
T1 sequence (P04693 1-397): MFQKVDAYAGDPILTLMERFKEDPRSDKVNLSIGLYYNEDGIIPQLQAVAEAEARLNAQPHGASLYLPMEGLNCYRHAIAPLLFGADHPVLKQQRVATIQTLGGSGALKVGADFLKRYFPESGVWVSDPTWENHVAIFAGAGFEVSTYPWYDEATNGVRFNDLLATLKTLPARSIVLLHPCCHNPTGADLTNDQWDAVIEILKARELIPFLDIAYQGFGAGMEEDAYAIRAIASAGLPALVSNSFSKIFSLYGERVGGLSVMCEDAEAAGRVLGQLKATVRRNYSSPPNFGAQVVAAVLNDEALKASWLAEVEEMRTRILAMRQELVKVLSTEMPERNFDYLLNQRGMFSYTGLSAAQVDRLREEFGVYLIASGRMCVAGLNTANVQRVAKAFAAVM
The experiment in a line: in vitro cascade of purified PpLTA, RpTD and TyrB. As to conditions: final transamination step. The class given is biochemical.

In the case of `Cc1ccc(C[C@H](N)C(=O)O)cc1` [p-methylphenylalanine], where the note is “from 1 mM para-methylbenzaldehyde”, the “in vitro cascade of purified PpLTA, RpTD and TyrB” value is “the enzyme cascade efficiently converted the substrates into their corresponding amino acids”.
As to `N[C@@H](Cc1ccc(I)cc1)C(=O)O` [compound 19, p-iodophenylalanine], the “in vitro cascade of purified PpLTA, RpTD and TyrB” value (from 1 mM para-iodobenzaldehyde) is “the enzyme cascade efficiently converted the substrates into their corresponding amino acids”.
